Assay results published in US11123292B2, “Use of biocompatible microdroplets for the treatment of atherosclerosis, heart disease and stroke” (priority 2014, dated 2021).
Entries after “also recorded” stand apart in the source; their conditions may differ.

Assays:
[1] = single compound; cited from earlier work
[2] = Relative Energy Difference (RED) with cholesterol, calculated from HSP; conditions: for Relative Energy Difference (RED) with cholesterol: RED=Ra/Ro, Ro of cholesterol 12.6
Protocol: The extent to which two compounds will dissolve each other can be quantified using the equations developed by Hansen: (Ra)^2=4(δd2−δd1)^2+(δp2−δp1)^2+(δh2−δh1)^2 Eq. (1) RED=Ra/Ro Eq. (2)
Equation 1 calculates the relative magnitude difference of the three Hansen parameters of the two compounds to arrive at Ra. […] Equation 2 allows one to calculate the Relative Energy Difference (RED) of the solvent and the material we are trying to dissolve, by dividing Ra by Ro. Ra was calculated in Equation 1 and measures the magnitude of the difference of the HSP values of the two compounds. The units for the HSP parameters δd, δp, δh are MPa^1/2. […] The Relative Energy Difference (RED) is a dimensionless number which quantifies how well a solvent will dissolve a solute. For an RED>>1 the compounds will not dissolve. For an RED˜1, there will be some dissolution. For an RED<1 there will be a considerable amount of dissolution. Essentially, the smaller RED value, the more solute will dissolve into the solvent, with RED=1 being a threshold where a given solute is starting to be soluble in a given solvent.
Referring now to FIG. 6, this diagram provides a flow chart showing how the biocompatible microdroplet solvent emulsion can be formulated. […] For an example of compounds which might be included in 400, please refer to Tables 1, 2, 3 and 4. However, this list of tables is by no means exhaustive and other compounds could be added to this list. The number of compounds selected can comprise of 1, 2, 3 or as many as are deemed necessary, which is symbolized by the variable n. The HSP parameters of a homogenous mixture of compounds are the weighted average of the HSP parameters of the individual components. […] Ideally, it is possible to formulate a solution such that the resultant RED of the mixture is smaller than the RED of any of the individual components.
The δdm, δpm, δhm calculated using Eq. 9 are the Hansen solubility parameters of the homogenous mixture, where m denotes mixture, and fi depicts the fraction of each of the n components used to fabricate the biocompatible solvent. Equation 10 can be used to calculate the RED of the final mixture, where Ro is the interaction radius of the cholesterol, or other component of arterial plaque one desires to dissolve using the biocompatible microdroplets and […] represents the Hansen solubility constants of cholesterol (dispersion, polar and hydrogen bonding components) or the HSP parameter of the arterial plaque which is being targeted.

[3] = Dissolving cholesterol by microdroplets in whole blood
Source text: (§1) To effectively dissolve arterial plaque in-vivo it is very important that the biocompatible solvent be sufficiently insoluble in blood to allow a small discrete microdroplet to travel through the blood stream, from the injection point, to the plaque which is being treated. If the biocompatible solvent dissolves within the blood, such as an alcohol, the solubility parameters of the resultant mixture will be very nearly identical to that of blood and will not dissolve cholesterol or arterial plaque. Conversely, if a discrete microdroplet of the biocompatible solvent makes contact with the plaque, then the cholesterol molecule in the plaque will be surrounded by multiple molecules of the biocompatible solvent, which have similar solubility parameters as the cholesterol, and the cholesterol will be drawn away from the plaque and into the droplet. […] An organic salt, Esters, an organo-metallic compound could also be used as the main component or an addition to the biocompatible microdroplet solvent means. Essentially any organic molecule which can be administered intravenously with acceptable side effects, is sufficiently insoluble in blood to travel as a discrete microdroplet without being dissolved prior to reaching arterial plaque and which is capable of dissolving cholesterol, cholesterol esters or other materials within the arterial plaque, could potentially be used.
1,8-cineole is classified as a cyclic ether and a monoterpenoid. […] This chemical gives certain fruits such as apples and strawberries their fruity taste, and is used as an additive in bubble gums for this purpose. […] It is used as a fragrance or flavouring agent. […] It is produced natuarally by the organism, and is found in abundance in shark liver oil.

[4] = Water insoluble solvents tested for dissolving cholesterol / arterial plaque; conditions: medium not stated
Source text: as §1

[5] = cited from earlier work; for mass fraction of cholesterol which will dissolve in a pure solution of the alcohol: 37° C.

Relative Energy Difference (RED) with cholesterol [2] | Compound | δd London dispersion HSP parameter [1] [MPa^1/2] | δh hydrogen bonding HSP parameter [1] [MPa^1/2] | δp polarity HSP parameter [1] [MPa^1/2] | other results
– | C=C(C)[C@H]1CC=C(C)CC1 (racemic) [Dipentene] | 16.7 | 4 | 2.2 | –
0.70 | CC(C)C12CCC(C)(CC1)O2 [1,4-Cineole] | 17.1 | 3.7 | 3.6 | –
0.77 | CC12CCC(CC1)C(C)(C)O2 [1,8-cineole] | 16.7 | 3.4 | 4.6 | efficacy at dissolving cholesterol, two experiments compared ([3]; up to a 4× difference in blood volume): identical to within measurement error; efficacy of microdroplets at dissolving cholesterol in whole blood [3]: extremely good efficacy; efficacy of microdroplets at dissolving cholesterol in whole blood ([3]; listed as 1,8 cineole): excellent results; also recorded: excellent efficacy
– | Brc1cccc2ccccc12 [1-Bromonaphthalene] | – | – | – | result of solvent testing (dissolving cholesterol) [4]: very promising results
– | CC/C=C\C/C=C\C/C=C\CCCCCCCC(=O)O [Alpha-linolenic acid] | – | – | – | result of solvent testing (dissolving cholesterol) [4]: very promising results
0.83 | C=CC(C)(C)C(=O)C=C(C)C [Artemisia Ketone] | 15.9 | 5.1 | 5.8 | –
0.5 | C=C(C)C1CC=C(C)C(=O)C1 (centres unmarked) [Carvone] | 18 | 6.4 | 5.6 | efficacy of microdroplets at dissolving cholesterol in whole blood [3]: excellent results
0.7 | CC(C)=CCCC(C)=CC=O [Citral] | 16.3 | 6.2 | 2.3 | –
0.78 | CC(C)=CCCC(C)CC=O (centres unmarked) [Citronellal] | 16.2 | 5.2 | 5.9 | –
0.72 | CC(C)=CCCC(C)CCO (centres unmarked) [Citronellol] | 16 | 10.7 | 4.7 | –
1.32 | CCO [Ethanol, reference compound] | – | – | – | mass fraction of cholesterol which will dissolve in a pure solution of the alcohol [5]: 3.3%
0.53 | C=CCc1ccc(O)c(OC)c1 [Eugenol] | 18.1 | 11.6 | 7.1 | efficacy of microdroplets at dissolving cholesterol in whole blood [3]: excellent results; Ra^2 versus cholesterol ([2]; Eq. 1): 44
0.65 | CC(C)=CCCC(C)=CCCC(C)=CCO [Farnesol] | 16.4 | 7.7 | 3.8 | –
0.63 | CC1CCC(C(C)C)C(O)C1 (centres unmarked) [Menthol] | 16.6 | 10.6 | 4.7 | –
0.79 | CC(C)[C@@H]1CC[C@@H](C)CC1=O [Menthone] | 17 | 4.4 | 8.1 | –
0.78 | C=CC(=C)CCC=C(C)C [Myrcene] | 16 | 5.1 | 2.2 | –
0.64 | C=CC(C)(O)CCC=C(C)CCC=C(C)C (centres unmarked) [Nerolidol] | 16.4 | 8.7 | 2.7 | –
0.62 | C=CC(C)=CCC=C(C)C [Ocimene] | 16.5 | 9.1 | 2 | –
0.72 | CC1=CC(=O)C(C(C)C)CC1 (centres unmarked) [Piperitone] | 17 | 4.5 | 6.2 | –
0.52 | CC(C)=CCC/C(C)=C/CC/C(C)=C/CC/C=C(\C)CC/C=C(\C)CCC=C(C)C [Squalene] | 17.6 | 6 | 3 | –
0.74 | C=C(C)[C@@H]1CCC=C(C)C1 [Sylvestrene] | 16.6 | 4.1 | 3 | –
0.70 | CC1=CCC(=C(C)C)CC1 [Terpinolene] | 16.9 | 4.1 | 1.8 | –
0.74 | CC(C)=CCC[C@H](C)[C@@H]1C=CC(C)=CC1 [Zingiberene] | 16.6 | 4.1 | 1.4 | –
– | CC(C)CCC[C@@H](C)[C@H]1CC[C@H]2[C@@H]3CC=C4C[C@@H](O)CC[C@]4(C)[C@H]3CC[C@]12C [cholesterol, Cholesterol] | 20.4 | 9.4 | 2.8 | solubility of cholesterol in pure water ([5]; 30° C.): approximately 95 micrograms per litre; solubility of cholesterol in water ([5]; 30° C.): 0.000095 grams/litre
0.73 | Bisabolene | 16.7 | 4 | 2.2 | –
0.76 | Phellandrene | 16.5 | 3.9 | 1.6 | –
– | terpinene | – | – | – | efficacy of microdroplets at dissolving cholesterol in whole blood [3]: excellent results

Compound | Relative Energy Difference (RED) with cholesterol [2] | δd London dispersion HSP parameter [1] [MPa^1/2] | δh hydrogen bonding HSP parameter [1] [MPa^1/2] | δp polarity HSP parameter [1] [MPa^1/2] | other results
C=CC(C)(CCC=C(C)C)OC(C)=O (centres unmarked) [Linalyl Acetate] | 0.76 | 16 | 5.5 | 2.8 | –
C=C(C)C1CC=C(C=O)CC1 (centres unmarked) [Perillaldehyde] | 0.68 | 17.1 | 5.9 | 6.9 | –
CCCO [Propanol, reference compound] | 1.10 | – | – | – | mass fraction of cholesterol which will dissolve in a pure solution of the alcohol [5]: 11%
CC(C)=C1CC[C@@H](C)CC1=O [Pulegone] | 0.74 | 17.5 | 5.5 | 8.9 | –
O [water, reference compound] | 2.9 | – | – | – | mass fraction of cholesterol which will dissolve in pure water ([5]; pure water): 0.0000095%
